Peptide text beside a SMILES is read from it.
Columns and labels:
Clytia MIHR [1] = experiment: GPCR deorphanization assay, luminescence response to peptides at 1 μM (CHO-K1 cells, Gα-16, GFP-apoaequorin); type: cell-based, Clytia hemisphaerica; conditions: peptide 1E-6M, normalised to Platynereis FLamide receptor + 1 μM AKYFL-NH2, n = 3
Source text: We used a cell culture–based GPCR deorphanization assay to identify the MIH receptor from our candidate shortlist. cDNAs for each candidate were transfected into Chinese Hamster ovary K1 (CHO-K1) cells along with the promiscuous Gα protein Gα-16, and an aequorin-GFP luminescence reporter that measures Ca^2+ mobilization downstream of this heterologous Gα protein [27, 28]. We first screened the 16 candidate Clytia GPCRs against a mixture of 33 synthetic amidated peptides (including MIHs) predicted to be generated from previously identified putative Clytia neuropeptide precursors and one additional one identified from transcriptome data. Given our imperfect knowledge of pro-peptide processing in cnidarians, some of the synthetic peptides may not correspond to endogenous peptides. Only one of the 16 GPCRs was activated by this peptide mixture. This receptor responded well to all 4 synthetic Clytia MIH tetrapeptides, as well as to related Cladonema MIH peptides that can also activate Clytia oocyte maturation, but not to other Clytia peptide mixtures or poorly active MIH penta-/tripeptides. We termed this Clytia GPCR the Maturation Inducing Hormone Receptor (MIHR). The activity of individual peptides at 1 μM to stimulate the MIHR closely matched their in vivo ability to induce oocyte maturation (Fig 1B).
(§1) Cell culture GPCR ligand response assays were performed as described. Briefly, CHO-K1 cells were cultured in Ham’s F12 Nut Mix medium (Thermo Fisher Scientific) with 10% foetal bovine serum. Cells were seeded in 96-well plates at approximately 10,000 cells/well and transfected the following day with pcDNA3.1(+) plasmids encoding each of the 16 candidate Clytia GPCRs (S2 Text), the promiscuous Gα-16 protein [65], and a reporter construct GFP-apoaequorin [66] (60 ng each) using the transfection reagent TurboFect (Thermo Fisher Scientific). After 2 days of expression, the medium was removed and replaced with Hank’s balanced salt solution (HBSS) supplemented with 1.8 mM Ca2+, 10 mM glucose, and […] coelenterazine h (Promega, Madison, WI). After incubation at 37 °C for 2 hours, cells were tested by adding synthetic peptides (GenScript) in HBSS supplemented with 1.8 mM Ca2^+ and 10 mM glucose. A list of all synthetic peptides used is provided in S2 Table. Luminescence was recorded for 45 seconds in a plate reader (BioTek Synergy Mx or Synergy H4; BioTek, Winooski, VT). Data were integrated over the 45-second measurement period and recorded as technical triplicates in each case. Data were normalized using the response of Platynereis FLamide receptor to 1 μM AKYFL-NH2 [28]. Dose–response curves were obtained using concentrations between 0.01 nM and 100 μM for each peptide. Data for dose–response curves were recorded in triplicate for each concentration and the experiment was repeated independently 3 times. Dose–response curves were fitted with a four-parameter curve using Prism 6 (GraphPad, La Jolla, CA) and were normalized to the calculated upper plateau values (100% activation).
Supplementary file pbio.3000614.s011.xlsx: S1 Data Numerical data corresponding to Fig 1B. Raw luminescence values obtained in triplicate for each of the neuropeptide combinations tested against the MIHR in the deorphanization assay are provided. In the right-hand table, the raw luminescence values obtained in quadruple for the positive and negative controls are provided. In the lower table, means and standard errors of the mean of the luminescence values obtained for each neuropeptide combination and controls are also shown, as well as the values normalized to the positive control, which were used to prepare the graph shown in Fig 1B. MIHR, MIH receptor. (XLSX) Click here for additional data file.

Clytia MIHR [2] = experiment: Dose–response curves of Clytia MIHR, luminescence (CHO-K1 cells, Gα-16, GFP-apoaequorin); type: cell-based, Clytia hemisphaerica; parameters: key to Span (best-fit value) / Bottom (best-fit value): % activation, normalized to fitted upper plateau (100%); conditions: for EC50: four-parameter fit, variable slope, triplicate; for HillSlope / LogEC50: best-fit value; for Bottom / Span / Top: best-fit value (luminescence)
Procedure: The Clytia MIH amidated peptides are produced from two precursor genes Che-pp4 (generating multiple copies of WPRAamide, WPRYamide, and WPRPamide) and Che-pp1 (multiple copies of WPRPamide and RPRGamide).
as §1
Supplementary file pbio.3000614.s012.xlsx: S2 Data Numerical data corresponding to Fig 1C. The first three tabs show statistical values obtained using Prism 6 software (GraphPad, La Jolla, CA) from the raw luminescence values for 3 independent dose–response experiments. The raw luminescence values are shown, as well as the values normalized with respect to the maximum. […] MIH, maturation-inducing hormone. (XLSX) Click here for additional data file.

[3] = system: wild-type (WT) isolated female gonads; experiment: Gonad spawning assay, wild-type isolated gonads; parameters: species or system Clytia hemisphaerica
Procedure: We performed a series of oocyte maturation and spawning assays, comparing the responses of wild-type and MIHR mutant isolated gonads and oocytes to different stimuli (Fig 4).
Sexually mature MIHR mutant medusae from colonies n5-13 and n5-23 and wild-type medusae were cultured on the same day–night cycle. Individual gonads were dissected in the evening after afternoon spawning. To test the light response, one group of each was transferred to 100 μL MFSW in wells of 96-well plastic plates, covered overnight, and re-exposed to white light the following day. To test responses to MIH and cAMP, other groups of dissected gonads were cultured overnight in constant light, then transferred to 96-well plastic plates for two hours. MIH was added to wells as an equal volume of 200 nM WPRPamide (GenScript) stock in MFSW was added to give a final concentration of 100 nM. Alternatively, a stock of 20 mM bromo adenosine 3′,5′cyclic monophosphate (Br-cAMP–Fluka; Sigma Aldrich) in distilled water was added to give a final concentration of 4 mM. Gonads were washed after 5 minutes incubation in Br-cAMP. Oocyte maturation was scored after 30 minutes as germinal vesicle breakdown (GVBD), i.e., visible dissolution of the oocyte nuclear membrane upon entry into M phase, which in all cases was followed by spawning about 1 hour later.
Supplementary file pbio.3000614.s013.xlsx: S3 Data Numerical data corresponding to Fig 4A and 4C. The first tab collects all the raw data from 3 independent gonad spawning assays. Information corresponding to the Fisher exact tests is also shown. […] The means and standard deviations were used to prepare the graph in Fig 4C. Information corresponding to the Fisher exact tests is also shown. (XLSX) Click here for additional data file.

[4] = log(agonist) vs. response, variable slope (four parameters), fit of third dataset
[5] = 0,1uM WPRPa, wild type, replicate 1, total 22
[6] = 0,1uM WPRPa, wild type, replicate 2, total 24
[7] = 0,1uM WPRPa, wild type, replicate 3, total 18
[8] = WPRPa, pooled n=64, Fisher exact test vs MIHR KO significant at p < .01

N=C(N)NCCC[C@H](NC(=O)[C@@H]1CCCN1C(=O)[C@@H](N)Cc1c[nH]c2ccccc12)C(=O)N1CCC[C@H]1C(N)=O [WPRPa] (H-WPRP-NH2; N-terminus assumed)
Normalised response (to positive control), mean (Clytia MIHR [1]): 0.381 | EC50 (Clytia MIHR [2]; dataset/experiment 1): 220 nM | EC50 (Clytia MIHR [2]; dataset/experiment 2): 928 nM | HillSlope (Clytia MIHR [2]; first dataset): 1.128 | LogEC50 (Clytia MIHR [2]; first dataset): -6.658 | Bottom (Clytia MIHR [2]; first dataset): 935 | Span (Clytia MIHR [2]; first dataset): 46105 | Top (Clytia MIHR [2]; first dataset): 47040 | Bottom (best-fit value) (Clytia MIHR [2]; [4]): 10.51 | HillSlope (best-fit value) (Clytia MIHR [2]; [4]): 1.078 | LogEC50 (best-fit value) (Clytia MIHR [2]; [4]): -6.286 | Span (best-fit value) (Clytia MIHR [2]; [4]): 89.49 | HillSlope (Clytia MIHR [2]; second dataset): 0.9926 | LogEC50 (Clytia MIHR [2]; second dataset): -6.033 | Bottom (Clytia MIHR [2]; second dataset): 1493 | Span (Clytia MIHR [2]; second dataset): 22106 | Top (Clytia MIHR [2]; second dataset): 23599 | Percentage of spawning gonads, Mean ([3]; 0,1uM WPRPa, wild type, mean of 3 replicates, Desvest 7.87296): 95.4545 | Gonads spawning (number) [3, 5]: 19 | Percentage of spawning gonads [3, 5]: 86.3636 | Gonads spawning (number) [3, 6]: 24 | Percentage of spawning gonads [3, 6]: 100 | Gonads spawning (number) [3, 7]: 18 | Percentage of spawning gonads [3, 7]: 100 | Non-spawning gonads, WT NO [3, 8]: 3 | Spawning gonads, WT YES [3, 8]: 61 | oocyte maturation and spawning of WT gonads ([3]; isolated WT gonads, 100 nM WPRPamide): underwent oocyte maturation and spawning

From publication PMC7053711, “A G protein–coupled receptor mediates neuropeptide-induced oocyte maturation in the jellyfish Clytia” (PLoS Biology, 2020)
